# What was measured:
# [1] = system: Spontaneously Hypertensive Rats; experiment: Antihypertensive action, tail-cuff systolic pressure in unanaesthetized SHR after i.p. administration; type: in vivo, Spontaneously Hypertensive Rats (female); details: 3 mg/kg intraperitoneally
# Protocol: Female Spontaneously Hypertensive Rats(hereinafter referred to as SHR) with 160 mmHg of systolic pressure were employed without anaesthetization. The systolic pressure was, after SHRs were kept warm at 50° C. for 2 to 3 minutes, bloodlessly measured by the tail-cuff method [Japan J. Pharmacol., 28, 617 (1978)] using a Physiograph and an Electrosphygmomanometer (DMP-4B, PE-300, Narco Biosystems, Inc., Houston). Each compound was intraperitoneally administered to SHR at a dose of 3 mg per kilogramm. Antihypertensive action is shown in a maximal decrease of blood pressure, i.e. a maximum difference between systolic pressures after and before the administration of the test compound; along with which the duration period is also shown.
# [2] = system: heart (contraction of apex); experiment: Systole inhibitory action / negative inotropic action, contractile tension of isolated Langendorff-perfused heart; parameters: species or system Guinea pigs
# Protocol: (§1) Guinea pigs with 400-800g of body weight were hit strongly on their heads and the cartoid artery of each Guinea pigs was cut down in order to make them bloodless. The heart was isolated and perfused with at a constant pressure (50 cm H2 O) by the Langendorff method [Basic Pharmacology & Therapeutics, 9(4), 181 (1981)]. Krebs-Ringer bicarbonate solution (27° C.) containing 0.5% defibrinated blood was employed as a perfusate, into which a mixed gas of 95% oxygen and 5% carbon dioxide was continuously introduced. The flowing perfusate was led into a drop counter, and the changes of the flow i.e. increase and decrease are regarded as the respective indications for coronary vasodilation and vasoconstriction. The isomeric contraction of apex and the number of drops of the coronary perfusate were recorded on a Recticorder (RJG 3006, Nihon Koden) by way of an F-D Pick-up (SB-IT, Nihon Koden). […] Coronary vasodilating action is shown in changes of the quantiy of the perfusate, and systole inhibitory action is shown in those of inotropic tension.
# [3] = system: heart (coronary perfusate flow); experiment: Coronary vasodilating action, perfusion flow change in isolated Langendorff-perfused heart; parameters: species or system Guinea pigs
# Protocol: as §1
# in vivo = details: mouse, female DS mice, intravenous
# Protocol: In female DS mice (body weight: about 20g), LD50 value after the intravenous administration of the compounds was calculated by the Brownlee's up and down method [J. Am. Sat. As., 48, 262 (1953)].
SMILES,Duration of Effect ([1]; Table 1 (Part 2)) [h],Maximum decrease in systolic pressure ([1]; Table 1 (Part 2)) [mmHg],"Change of Contractile Tension ([2]; 0.1 μg, Table 1 (Part 2)) [%]","Perfusion Flow Change ([3]; 0.1 μg, Table 1 (Part 2))",Duration of Effect ([1]; Table 1 (Part 1)) [h],Maximum Hypotension ([1]; Table 1 (Part 1)) [mmHg],"Change of Contractile Tension ([2]; 0.1 μg, Table 3 (Part 1)) [%]","Change of Contractile Tension ([2]; 1 μg, Table 3 (Part 1)) [%]","Perfusion Flow Change ([3]; 0.1 μg, Table 2 (Part 1))","Perfusion Flow Change ([3]; 1 μg, Table 2 (Part 1))",LD50 (in vivo) [mg/kg],"Change of Contractile Tension ([2]; 10 μg, Table 3 (Part 1)) [%]","Perfusion Flow Change ([3]; 10 μg, Table 2 (Part 1))"
"CC1=C(C(=O)OCCc2ccccc2)C(c2ccccc2[N+](=O)[O-])c2c(C3CCCC3)nn(C)c2N1 (centres unmarked) [(K), Phenethyl 3-cyclopentyl-1,6-dimethyl-4-(2-nitrophenyl)-4,7-dihydropyrazolo[3,4-b]pyridine-5-carboxylate]",6,75,0,+63%,,,,,,,,,
"CSCCOC(=O)C1=C(C)Nc2c(c(C3CCCC3)nn2C)C1c1ccccc1[N+](=O)[O-] (centres unmarked) [(J), 2-Methylthioethyl 3-cyclopentyl-1,6-dimethyl-4-(2-nitrophenyl)-4,7-dihydropyrazolo[3,4-b]pyridine-5-carboxylate]",6,20,0,+68%,,,,,,,,,
"CC1=C(C(=O)OCCc2ccc(Cl)cc2)C(c2cccc([N+](=O)[O-])c2)c2c(C3CCCC3)nn(C)c2N1 (centres unmarked) [(L), 4-Chlorophenethyl 3-cyclopentyl-1,6-dimethyl-4-(3-nitrophenyl)-4,7-dihydropyrazolo[3,4-b]pyridine-5-carboxylate]",6,74,,,,,,,,,,,
"COC(=O)C1=C(C)NC(C)=C(C(=O)OC)C1c1ccccc1[N+](=O)[O-] [(A), Nifedipine, reference compound]",6,45,-15,+38%,6,45,-15,-57,+38%,+100%,,,
"COCCOC(=O)C1=C(C)Nc2c(c(C3CCCC3)nn2C)C1c1ccccc1[N+](=O)[O-] (centres unmarked) [(B-2), 2-Methoxyethyl 3-cyclopentyl-1,6-dimethyl-4-(2-nitrophenyl)-4,7-dihydropyrazolo[3,4-b]pyridine-5-carboxylate]",6,45,0,+28%,,,,,,,,,
"CC1=C(C(=O)OCC2CCCO2)C(c2ccccc2[N+](=O)[O-])c2c(C3CCCC3)nn(C)c2N1 (centres unmarked) [(H), 2-Tetrahydrofurylmethyl 3-cyclopentyl-1,6-dimethyl-4-(2-nitrophenyl)-4,7-dihydropyrazolo[3,4-b]pyridine-5-carboxylate]",,0,0,+34%,,,,,,,,,
"CC1=C(C(=O)OCCOC2CCCC2)C(c2ccccc2[N+](=O)[O-])c2c(C3CCCC3)nn(C)c2N1 (centres unmarked) [(G), 2-Cyclopentyloxyethyl 3-cyclopentyl-1,6-dimethyl-4-(2-nitrophenyl)-4,7-dihydropyrazolo[3,4-b]pyridine-5-carboxylate]",6,53,0,+67%,,,,,,,,,
"COc1ccc(CCOC(=O)C2=C(C)Nc3c(c(C4CCCC4)nn3C)C2c2cccc([N+](=O)[O-])c2)cc1OC (centres unmarked) [(M), 3,4-Dimethoxyphenethyl 3-cyclopentyl-1,6-dimethyl-4-(3-nitrophenyl)-4,7-dihydropyrazolo[3,4-b]pyridine-5-carboxylate]",6,86,,,,,,,,,,,
"COC(=O)C1=C(C)Nc2c(c(C3CCCC3)nn2C)C1c1cccc([N+](=O)[O-])c1 (centres unmarked) [(B-1), Methyl 3-cyclopentyl-1,6-dimethyl-4-(3-nitrophenyl)-4,7-dihydropyrazolo[3,4-b]pyridine-5-carboxylate]",,,,,16,66,0,0,+26%,+73%,31.5,0,+180%
"COCCOC(=O)C1=C(C)Nc2c(c(C3CCCC3)nn2C)C1c1cccc([N+](=O)[O-])c1 (centres unmarked) [(C-2), 2-Methoxyethyl 3-cyclopentyl-1,6-dimethyl-4-(3-nitrophenyl)-4,7-dihydropyrazolo[3,4-b]pyridine-5-carboxylate]",6,36,0,+15%,,,,,,,,,
"COCCOC(=O)C1=C(C)Nc2c(c(C3CCCCC3)nn2C)C1c1ccccc1[N+](=O)[O-] (centres unmarked) [(D), 2-Methoxyethyl 3-cyclohexyl-1,6-dimethyl-4-(2-nitrophenyl)-4,7-dihydropyrazolo[3,4-b]pyridine-5-carboxylate]",6,65,0,+32%,,,,,,,,,
"CCOC(=O)C1=C(C)Nc2c(c(C3CCCC3)nn2C)C1c1cccc([N+](=O)[O-])c1.Cl (centres unmarked) [(C-1), Ethyl 3-cyclopentyl-1,6-dimethyl-4-(3-nitrophenyl)-4,7-dihydropyrazolo[3,4-b]pyridine-5-carboxylate hydrochloride]",,,,,14,42,0,0,+40%,+79%,50.6,0,+93%
"COCCOC(=O)C1=C(C)Nc2c(c(CC3CCCC3)nn2C)C1c1ccccc1[N+](=O)[O-] (centres unmarked) [(E), 2-Methoxyethyl 3-cyclopentylmethyl-1,6-dimethyl-4-(2-nitrophenyl)-4,7-dihydropyrazolo[3,4-b]pyridine-5-carboxylate]",6,26,0,+20%,,,,,,,,,
"CC1=C(C(=O)OCCOc2ccccc2)C(c2ccccc2[N+](=O)[O-])c2c(C3CCCC3)nn(C)c2N1 (centres unmarked) [(I), 2-Phenoxyethyl 3-cyclopentyl-1,6-dimethyl-4-(2-nitrophenyl)-4,7-dihydropyrazolo[3,4-b]pyridine-5-carboxylate]",6,74,0,+43%,,,,,,,,,
"CC1=C(C(=O)OCCCOC(C)C)C(c2ccccc2[N+](=O)[O-])c2c(C3CCCC3)nn(C)c2N1 (centres unmarked) [(F), 3-Isopropoxypropyl 3-cyclopentyl-1,6-dimethyl-4-(2-nitrophenyl)-4,7-dihydropyrazolo[3,4-b]pyridine-5-carboxylate]",6,53,0,+65%,,,,,,,,,

# Reference: patent US4873334A, “4,7-dihydropyrazolo(3,4-b) pyridine derivatives” (Shionogi & Co., Ltd., priority 1982, dated 1989)
